Reference: PubChem BioAssay (NCI)
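Five concentrations, 48 hours, 96-well plates. GI50 marks 50% less growth. At the TGI there is no net growth.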

What was measured:
Experiment in all cases: NCI-60 cell line screen, 48 h
HCC-2998 colon = tested on: HCC-2998 colon
UACC-62 melanoma = tested on: UACC-62 melanoma
DU-145 prostate = tested on: DU-145 prostate
A498 renal = tested on: A498 renal
NCI-H460 lung = tested on: NCI-H460 lung
HT29 colon = tested on: HT29 colon
SF-539 CNS = tested on: SF-539 CNS
NCI-H226 lung = tested on: NCI-H226 lung
SW-620 colon = tested on: SW-620 colon
NCI-H522 lung = tested on: NCI-H522 lung
SR leukemia = tested on: SR leukemia
RXF 393 renal = tested on: RXF 393 renal
HOP-92 NSCLC = tested on: HOP-92 NSCLC
MALME-3M melanoma = tested on: MALME-3M melanoma
T-47D breast = tested on: T-47D breast
SK-OV-3 ovarian = tested on: SK-OV-3 ovarian
KM12 colon = tested on: KM12 colon
PC-3 prostate = tested on: PC-3 prostate
OVCAR-8 ovarian = tested on: OVCAR-8 ovarian
M14 melanoma = tested on: M14 melanoma
HOP-62 NSCLC = tested on: HOP-62 NSCLC
UO-31 renal = tested on: UO-31 renal
SN12C renal = tested on: SN12C renal
HCT-15 colon = tested on: HCT-15 colon
EKVX NSCLC = tested on: EKVX NSCLC
CAKI-1 renal = tested on: CAKI-1 renal
MDA-MB-435 = tested on: MDA-MB-435
A549 NSCLC = tested on: A549 NSCLC
UACC-257 melanoma = tested on: UACC-257 melanoma
SF-295 CNS = tested on: SF-295 CNS
MDA-MB-231 breast = tested on: MDA-MB-231 breast
SNB-19 CNS = tested on: SNB-19 CNS
SNB-75 CNS = tested on: SNB-75 CNS
HL-60(TB) leukemia = tested on: HL-60(TB) leukemia
CCRF-CEM leukemia = tested on: CCRF-CEM leukemia
BT-549 breast = tested on: BT-549 breast
ACHN renal = tested on: ACHN renal
HCT-116 colon = tested on: HCT-116 colon
TK-10 renal = tested on: TK-10 renal
HS 578T breast = tested on: HS 578T breast
COLO 205 colon = tested on: COLO 205 colon
OVCAR-3 ovarian = tested on: OVCAR-3 ovarian
OVCAR-4 ovarian = tested on: OVCAR-4 ovarian
SK-MEL-28 melanoma = tested on: SK-MEL-28 melanoma
U251 CNS = tested on: U251 CNS
OVCAR-5 ovarian = tested on: OVCAR-5 ovarian
786-0 renal = tested on: 786-0 renal
IGROV1 ovarian = tested on: IGROV1 ovarian
SK-MEL-2 melanoma = tested on: SK-MEL-2 melanoma
SK-MEL-5 melanoma = tested on: SK-MEL-5 melanoma
NCI/ADR-RES ovarian = tested on: NCI/ADR-RES ovarian

For `COc1ccc(-c2nc(/C=N/Nc3cc(C)nc4ccc(Br)cc34)c(C)o2)cc1`, the GI50 (HCC-2998 colon) was 1.96 µM, the TGI (HCC-2998 colon) was 3.65 µM and the GI50 (UACC-62 melanoma) was 1.76 µM. It also gave a TGI (UACC-62 melanoma) of 3.34 µM, a GI50 (DU-145 prostate) of 1.75 µM and a TGI (DU-145 prostate) of 3.34 µM. It also gave a GI50 (A498 renal) of 1.49 µM, a TGI (A498 renal) of 2.89 µM and a GI50 (NCI-H460 lung) of 1.93 µM. For the same compound, the TGI (NCI-H460 lung) was 3.73 µM, the GI50 (HT29 colon) was 1.62 µM and the TGI (HT29 colon) was 3.24 µM. For the same compound, the GI50 (SF-539 CNS) was 1.83 µM, the TGI (SF-539 CNS) was 3.3 µM and the GI50 (NCI-H226 lung) was 2.09 µM. For the same compound, the TGI (NCI-H226 lung) was 4.64 µM, the GI50 (SW-620 colon) was 0.415 µM and the TGI (SW-620 colon) was 1.56 µM. For the same compound, the GI50 (NCI-H522 lung) was 1.8 µM, the TGI (NCI-H522 lung) was 3.67 µM and the GI50 (SR leukemia) was 0.315 µM. It also gave a TGI (SR leukemia) of 1.59 µM, a GI50 (RXF 393 renal) of 1.44 µM and a TGI (RXF 393 renal) of 2.93 µM. For the same compound, the GI50 (HOP-92 NSCLC) was 1.45 µM, the TGI (HOP-92 NSCLC) was 3.06 µM and the GI50 (MALME-3M melanoma) was 1.98 µM. It also gave a TGI (MALME-3M melanoma) of 3.67 µM, a GI50 (T-47D breast) of 1.78 µM and a TGI (T-47D breast) of 3.69 µM. The GI50 (SK-OV-3 ovarian) was 1.7 µM, the TGI (SK-OV-3 ovarian) was 3.12 µM and the GI50 (KM12 colon) was 1.8 µM. It also gave a TGI (KM12 colon) of 3.62 µM, a GI50 (PC-3 prostate) of 1.67 µM and a TGI (PC-3 prostate) of 3.2 µM. For the same compound, the GI50 (OVCAR-8 ovarian) was 1.79 µM, the TGI (OVCAR-8 ovarian) was 3.86 µM and the GI50 (M14 melanoma) was 1.78 µM. The TGI (M14 melanoma) was 3.39 µM, the GI50 (HOP-62 NSCLC) was 1.67 µM and the TGI (HOP-62 NSCLC) was 3.25 µM. It also gave a GI50 (UO-31 renal) of 1.52 µM, a TGI (UO-31 renal) of 2.89 µM and a GI50 (SN12C renal) of 1.93 µM. The TGI (SN12C renal) was 3.62 µM, the GI50 (HCT-15 colon) was 0.902 µM and the TGI (HCT-15 colon) was 2.33 µM. It also gave a GI50 (EKVX NSCLC) of 1.93 µM, a TGI (EKVX NSCLC) of 3.44 µM and a GI50 (CAKI-1 renal) of 1.62 µM. The TGI (CAKI-1 renal) was 2.98 µM, the GI50 (MDA-MB-435) was 1.68 µM and the TGI (MDA-MB-435) was 3.1 µM. It also gave a GI50 (A549 NSCLC) of 1.74 µM, a TGI (A549 NSCLC) of 3.33 µM and a GI50 (UACC-257 melanoma) of 1.94 µM. It also gave a TGI (UACC-257 melanoma) of 3.57 µM, a GI50 (SF-295 CNS) of 1.9 µM and a TGI (SF-295 CNS) of 3.49 µM. It also gave a GI50 (MDA-MB-231 breast) of 1.93 µM, a TGI (MDA-MB-231 breast) of 3.72 µM and a GI50 (SNB-19 CNS) of 1.95 µM. It also gave a TGI (SNB-19 CNS) of 3.73 µM, a GI50 (SNB-75 CNS) of 1.68 µM and a TGI (SNB-75 CNS) of 3.28 µM. The GI50 (HL-60(TB) leukemia) was 1.49 µM, the TGI (HL-60(TB) leukemia) was 3.47 µM and the GI50 (CCRF-CEM leukemia) was 0.732 µM. For the same compound, the TGI (CCRF-CEM leukemia) was 3.38 µM, the GI50 (BT-549 breast) was 1.67 µM and the TGI (BT-549 breast) was 3.11 µM. It also gave a GI50 (ACHN renal) of 1.73 µM, a TGI (ACHN renal) of 3.11 µM and a GI50 (HCT-116 colon) of 1.84 µM. The TGI (HCT-116 colon) was 3.36 µM, the GI50 (TK-10 renal) was 1.97 µM and the TGI (TK-10 renal) was 3.45 µM. It also gave a GI50 (HS 578T breast) of 2.02 µM, a TGI (HS 578T breast) of 4.1 µM and a GI50 (COLO 205 colon) of 1.67 µM. The TGI (COLO 205 colon) was 3.35 µM, the GI50 (OVCAR-3 ovarian) was 1.84 µM and the TGI (OVCAR-3 ovarian) was 3.41 µM. The GI50 (OVCAR-4 ovarian) was 1.72 µM, the TGI (OVCAR-4 ovarian) was 3.31 µM and the GI50 (SK-MEL-28 melanoma) was 1.79 µM. It also gave a TGI (SK-MEL-28 melanoma) of 3.23 µM, a GI50 (U251 CNS) of 1.86 µM and a TGI (U251 CNS) of 3.39 µM. It also gave a GI50 (OVCAR-5 ovarian) of 1.95 µM, a TGI (OVCAR-5 ovarian) of 3.41 µM and a GI50 (786-0 renal) of 1.71 µM. For the same compound, the TGI (786-0 renal) was 3.22 µM, the GI50 (IGROV1 ovarian) was 1.72 µM and the TGI (IGROV1 ovarian) was 3.36 µM. The GI50 (SK-MEL-2 melanoma) was 1.99 µM, the TGI (SK-MEL-2 melanoma) was 3.9 µM and the GI50 (SK-MEL-5 melanoma) was 1.78 µM. The TGI (SK-MEL-5 melanoma) was 3.18 µM, the GI50 (NCI/ADR-RES ovarian) was 2.03 µM and the TGI (NCI/ADR-RES ovarian) was 4.48 µM.
